Reference: patent US9221791B2, “Metalloenzyme inhibitor compounds” (Viamet Pharmaceuticals, Inc., priority 2011, dated 2015)
≈ marks a conversion by molar mass, not a printed value.

Key:
[1] = tested on: Septoria tritici (ATCC 26517); test: Minimum Inhibitory Concentration (MIC) (Septoria tritici), CLSI-based microdilution; type: cell-based; settings: Zymoseptoria tritici, ATCC26517, 168 h, S. tritici ATCC 26517; 22° C. for seven days; 50% reduction in growth; read-out: Septoria Rating (MIC)
Procedure, shortened: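 S. tritici (ATCC 26517) tested by CLSI-style broth microdilution for filamentous fungi in RPMI-1640/MOPS, 2-fold series 16–0.016 μg/mL (11 concentrations, 2% DMSO before inoculum), duplicate rows. Inoculum ~5×10^4 cfu/mL; plates incubated 7 days at 22 °C in the dark, static; growth scored on a rating scale.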

[2] = tested on: Puccinia recondita tritici = Puccinia triticina; test: Fungicidal activity vs. leaf rust on wheat plants; type: in vivo; settings: wheat (variety Yuma) sprayed at 50 ppm, inoculated on the following day, evaluated 7-9 days later; read-out: Puccinia Rating (% Disease Control @ 50 ppm)
Excerpt: D. Evaluation of Fungicidal Activity Vs. Leaf Rust (Causal Agent Puccinia recondita tritici=Puccinia triticina; Bayer Code PUCCRT). […] Each pot contained 3-8 seedlings. These plants were sprayed until wet with the formulated test compounds. The compounds were formulated at 50 ppm in 10 vol. % acetone plus 90 vol. % Triton X water (deionized water 99.99 wt %+0.01 wt % Triton X100), giving a “formulated test compound.” Formulated test compounds were applied to plants using a turn table sprayer fitted with two opposing air atomization nozzles which delivered approximately 1500 L/ha of spray volume. On the following day, the leaves were inoculated with an aqueous spore suspension of Puccinia recondita tritici and the plants were kept in high humidity overnight to permit spores to germinate and infect the leaf. The plants were then transferred to a greenhouse until disease developed on untreated control plants. Disease severity was evaluated 7-9 days later, depending on the speed of disease development. In each case of Table 3, the Puccinia rating scale is as follows: […]

Row | Structure (SMILES) | MIC [1] [µg/mL] | pest or weed control at 50 ppm [2] [%]
1 | OC(Cn1cnnn1)(c1ccc(F)cc1F)C(F)(F)c1ccc(CC(F)(F)F)cn1 (stereo not shown) [Compound 17, 2-(2,4-Difluorophenyl)-1,1-difluoro-3-(1H-tetrazol-1-yl)-1-(5-(2,2,2-trifluoroethyl)pyridin-2-yl)propan-2-ol] | ≤ 0.5 | 80 to 100
2 | OC(Cn1cnnn1)(c1ccc(F)cc1F)C(F)(F)c1ccc(Cc2ccccc2)cn1 (stereo not shown) [Compound 75, 1-(5-Benzylpyridin-2-yl)-2-(2,4-difluorophenyl)-1,1-difluoro-3-(1H-tetrazol-1-yl)propan-2-ol] | ≤ 0.5 | 80 to 100
3 | OC(Cn1cnnn1)(c1ccc(F)cc1F)C(F)(F)c1ccc(C2CC2)cn1 (stereo not shown) [Compound 18, 1-(5-Cyclopropylpyridin-2-yl)-2-(2,4-difluorophenyl)-1,1-difluoro-3-(1H-tetrazol-1-yl)propan-2-ol] | ≤ 0.5 | 80 to 100
4 | OC(Cn1cnnn1)(c1ccc(F)cc1F)C(F)(F)c1ccc(C(F)(F)c2ccc(C(F)(F)F)cc2)cn1 (stereo not shown) [Compound 102, 1-(5-(difluoro(4-(trifluoromethyl)phenyl)methyl)pyridin-2-yl)-2-(2,4-difluorophenyl)-1,1-difluoro-3-(1H-tetrazol-1-yl)propan-2-ol] | 1.5 to 4 (≈ 2.74 to 7.31 µM) | 80 to 100
5 | N#Cc1ccc(-c2ccc(C(F)(F)C(O)(Cn3cnnn3)c3ccc(F)cc3F)nc2)nc1 (stereo not shown) [Compound 95, 6′-(2-(2,4-difluorophenyl)-1,1-difluoro-2-hydroxy-3-(1H-tetrazol-1-yl)propyl)-[2,3′-bipyridine]-5-carbonitrile] | 1.5 to 4 (≈ 3.29 to 8.78 µM) | 80 to 100
6 | OC(Cn1cncn1)(c1ccc(F)cc1F)C(F)(F)c1ccc(Cl)cn1 (stereo not shown) [Compound 29, 1-(5-Chloropyridin-2-yl)-2-(2,4-difluorophenyl)-1,1-difluoro-3-(1H-1,2,4-triazol-1-yl)propan-2-ol] | ≤ 0.5 | 80 to 100
7 | OC(Cn1cnnn1)(c1ccc(F)cc1F)C(F)(F)c1ccc(COc2ncc(C(F)(F)F)cc2Cl)cn1 (stereo not shown) [Compound 100] | ≤ 0.5 | 80 to 100
8 | N#Cc1cccc(OCc2ccc(C(F)(F)C(O)(Cn3cnnn3)c3ccc(F)cc3F)nc2)c1F (stereo not shown) [Compound 89, 3-((6-(2-(2,4-difluorophenyl)-1,1-difluoro-2-hydroxy-3-(1H-tetrazol-1-yl)propyl)pyridin-3-yl)methoxy)-2-fluorobenzonitrile] | ≤ 0.5 | 80 to 100
9 | OC(Cn1cnnn1)(c1ccc(F)cc1F)C(F)(F)c1ccc(CCCOCC(F)(F)F)cn1 (stereo not shown) [Compound 45, 2-(2,4-Difluorophenyl)-1,1-difluoro-3-(1H-tetrazol-1-yl)-1-(5-(3-(2,2,2-trifluoroethoxy)propyl)pyridin-2-yl)propan-2-ol] | ≤ 0.5 | 80 to 100
10 | O=C(c1ccc(C(F)(F)C(O)(Cn2cnnn2)c2ccc(F)cc2F)nc1)c1ccc(Cl)c(F)c1 (stereo not shown) [Compound 71, (4-Chloro-3-fluorophenyl)(6-(2-(2,4-difluorophenyl)-1,1-difluoro-2-hydroxy-3-(1H-tetrazol-1-yl)propyl)pyridin-3-yl)methanone] | ≤ 0.5 | 80 to 100
11 | OC(Cn1cnnn1)(c1ccc(Cl)cc1F)C(F)(F)c1ccc(Cl)cn1 (stereo not shown) [Compound 26, 2-(4-Chloro-2-fluorophenyl)-1-(5-chloropyridin-2-yl)-1,1-difluoro-3-(1H-tetrazol-1-yl)propan-2-ol] | ≤ 0.5 | 80 to 100
12 | N#Cc1ccc(OCc2ccc(C(F)(F)C(O)(Cn3cnnn3)c3ccc(F)cc3F)nc2)nc1 (stereo not shown) [Compound 98, 6-((6-(2-(2,4-difluorophenyl)-1,1-difluoro-2-hydroxy-3-(1H-tetrazol-1-yl)propyl)pyridin-3-yl)methoxy)nicotinonitrile] | ≤ 0.5 | 80 to 100
13 | N#Cc1ccc(SCc2ccc(C(F)(F)C(O)(Cn3cnnn3)c3ccc(F)cc3F)nc2)c(F)c1 (stereo not shown) [Compound 90, 4-(((6-(2-(2,4-difluorophenyl)-1,1-difluoro-2-hydroxy-3-(1H-tetrazol-1-yl)propyl)pyridin-3-yl)methyl)thio)-3-fluorobenzonitrile] | 1.5 (≈ 2.89 µM) | 40 to 59
14 | N#Cc1ccc(OCc2ccc(C(F)(F)C(O)(Cn3cnnn3)c3ccc(F)cc3F)nc2)c(F)c1 (stereo not shown) [Compound 88, 4-((6-(2-(2,4-difluorophenyl)-1,1-difluoro-2-hydroxy-3-(1H-tetrazol-1-yl)propyl)pyridin-3-yl)methoxy)-3-fluorobenzonitrile] | ≤ 0.5 | 80 to 100
15 | OC(Cn1cnnn1)(c1ccc(Cl)cc1F)C(F)(F)c1ccc(Br)cn1 (stereo not shown) [Compound 22, 1-(5-Bromopyridin-2-yl)-2-(4-chloro-2-fluorophenyl)-1,1-difluoro-3-(1H-tetrazol-1-yl)propan-2-ol] | ≤ 0.5 | 80 to 100
16 | CCOC/C=C/c1ccc(C(F)(F)C(O)(Cn2cnnn2)c2ccc(F)cc2F)nc1 (stereo not shown) [Compound 51, (E)-2-(2,4-Difluorophenyl)-1-(5-(3-ethoxyprop-1-en-1-yl)pyridin-2-yl)-1,1-difluoro-3-(1H-tetrazol-1-yl)propan-2-ol] | ≤ 0.5 | < 40
17 | OC(Cn1cnnn1)(c1ccc(F)cc1F)C(F)(F)c1ccccn1 (stereo not drawn) [2(−), 2-(2,4-Difluorophenyl)-1,1-difluoro-1-(pyridin-2-yl)-3-(1H-tetrazol-1-yl)propan-2-ol] | ≤ 0.5 | 80 to 100
18 | OC(Cn1cnnn1)(c1ccc(F)cc1F)C(F)(F)c1ccc(-c2ccncc2)cn1 (stereo not shown) [Compound 96, 1-([3,4′-bipyridin]-6-yl)-2-(2,4-difluorophenyl)-1,1-difluoro-3-(1H-tetrazol-1-yl)propan-2-ol] | 1.5 to 4 (≈ 3.49 to 9.29 µM) | 60 to 79
19 | OC(Cn1cnnn1)(c1ccc(F)cc1F)C(F)(F)c1ccc(-c2ccc(C(F)F)s2)cn1 (stereo not shown) [Compound 33, 1-(5-(5-(Difluoromethyl)thiophen-2-yl)pyridin-2-yl)-2-(2,4-difluorophenyl)-1,1-difluoro-3-(1H-tetrazol-1-yl)propan-2-ol] | ≤ 0.5 | 80 to 100
20 | OC(Cn1cnnn1)(c1ccc(F)cc1F)C(F)(F)c1ccc(C(F)(F)c2ccc(F)cc2)cn1 (stereo not shown) [Compound 101, 1-(5-(difluoro(4-fluorophenyl)methyl)pyridin-2-yl)-2-(2,4-difluorophenyl)-1,1-difluoro-3-(1H-tetrazol-1-yl)propan-2-ol] | 1.5 to 4 (≈ 3.02 to 8.04 µM) | 80 to 100
21 | CC(C)OC/C=C/c1ccc(C(F)(F)C(O)(Cn2cnnn2)c2ccc(F)cc2F)nc1 (stereo not shown) [Compound 54, (E)-2-(2,4-Difluorophenyl)-1,1-difluoro-1-(5-(3-isopropoxyprop-1-en-1-yl)pyridin-2-yl)-3-(1H-tetrazol-1-yl)propan-2-ol] | 1.5 (≈ 3.32 µM) | < 40
22 | OC(Cn1cnnn1)(c1ccc(Cl)cc1F)C(F)(F)c1ccc(CC(F)(F)F)cn1 (stereo not shown) [Compound 39, 2-(4-Chloro-2-fluorophenyl)-1,1-difluoro-3-(1H-tetrazol-1-yl)-1-(5-(2,2,2-trifluoroethyl)pyridin-2-yl)propan-2-ol] | ≤ 0.5 | 80 to 100
23 | OC(Cn1cnnn1)(c1ccc(Cl)cc1F)C(F)(F)c1ccc(CC2CC2)cn1 (stereo not shown) [Compound 60, 2-(4-Chloro-2-fluorophenyl)-1-(5-(cyclopropylmethyl)pyridin-2-yl)-1,1-difluoro-3-(1H-tetrazol-1-yl)propan-2-ol] | ≤ 0.5 | 80 to 100
24 | OC(Cn1cnnn1)(c1ccc(F)cc1F)C(F)(F)c1ccc(F)cn1 (stereo not shown) [Compound 10, 2-(2,4-Difluorophenyl)-1,1-difluoro-1-(5-fluoropyridin-2-yl)-3-(1H-tetrazol-1-yl)propan-2-ol] | 1.5 (≈ 4.04 µM) | 80 to 100
25 | CCOC/C=C\c1ccc(C(F)(F)C(O)(Cn2cnnn2)c2ccc(F)cc2F)nc1 (stereo not shown) [Compound 52, (Z)-2-(2,4-Difluorophenyl)-1-(5-(3-ethoxyprop-1-en-1-yl)pyridin-2-yl)-1,1-difluoro-3-(1H-tetrazol-1-yl)propan-2-ol] | ≤ 0.5 | < 40
26 | OC(Cn1cnnn1)(c1ccc(F)cc1F)C(F)(F)c1ccc(CC2CC2)cn1 (stereo not shown) [Compound 59, 1-(5-(Cyclopropylmethyl)pyridin-2-yl)-2-(2,4-difluorophenyl)-1,1-difluoro-3-(1H-tetrazol-1-yl)propan-2-ol] | ≤ 0.5 | 80 to 100
